Reference: patent US20090047244A1, “MACROCYCLIC SERINE PROTEASE INHIBITORS I” (Idenix Pharmaceuticals, Inc., priority 2007, published 2009)

Assays:
[1] = tested on: Huh-7 cells containing HCV Con1 subgenomic replicon (GS4.1 cells); experiment: HCV Replicon Assay (NS4A ELISA); format: cell-based; settings: Hepatitis C virus, 72 hr, NS4A protein expression by ELISA
Experimental: General procedure: Huh-7 cells containing HCV Con1 subgenomic replicon (GS4.1 cells) were grown in Dulbecco's Modified Eagle Medium (DMEM) supplemented with 10% fetal bovine serum (FBS), 2 mM L-glutamine, 110 mg/L sodium pyruvate, 1X non-essential amino acids, 100 U/mL penicillin-streptomycin, and 0.5 mg/mL G418 (Invitrogen). For dose-response testing, the cells were seeded in 96-well plates at 7.5×10^3 cells/well in a volume of 50 μL, and incubated at 37° C./5% CO2. Three hours after plating, 50 μL of ten 2-fold serial dilutions of compounds (highest concentration, 75 μM) were added, and cell cultures were incubated at 37° C./5% CO2 in the presence of 0.5% DMSO. Alternatively, compounds were tested at a single concentration of 15 μM. In all cases, Huh-7 cells lacking the HCV replicon served as negative control. The cells were incubated in the presence of compounds for 72 hr after which they were monitored for expression of the NS4A protein by enzyme-linked immunosorbent assay (ELISA). For this, the plates were then fixed for 1 min with acetone/methanol (1:1, v/v), washed twice with phosphate-buffered saline (PBS), 0.1% Tween 20, blocked for 1 hr at room temperature with TNE buffer containing 10% FBS and then incubated for 2 hr at 37° C. with the anti-NS4A mouse monoclonal antibody A-236 (ViroGen) diluted in the same buffer. After washing three times with PBS, 0.1% Tween 20, the cells were incubated 1 hr at 37° C. with anti-mouse immunoglobulin G-peroxidase conjugate in TNE, 10% FBS. After washing as described above, the reaction was developed with O-phenylenediamine (Zymed). The reaction was stopped after 30 min with 2 N H2SO4, and absorbance was read at 492 nm using Sunrise Tecan spectrophotometer. EC50 values were determined from the % inhibition versus concentration data using a sigmoidal non-linear regression analysis based on four parameters with Tecan Magellan software. When screening at a single concentration, the results were expressed as % inhibition at 15 μM.

[2] = Cytotoxicity evaluation (Cell Titer 96 AQueous One Solution Cell Proliferation Assay); format: cell-based; settings: human; GS4.1 cells, cellular viability
Experimental: For cytotoxicity evaluation, GS4.1 cells were treated with compounds as described above and cellular viability was monitored using the Cell Titer 96 AQueous One Solution Cell Proliferation Assay (Promega). CC50 values were determined from the % cytotoxicity versus concentration data with Tecan Magellan software as described above.

HCV NS3-NS4A protease = target: T1, HCV NS3-NS4A protease (Hepatitis C virus genotype 1a, UniProt P27958); experiment: HCV Protease Assay (SensoLyte 620 HCV Protease Assay kit); format: biochemical; settings: 1.2 nM HCV NS3-NS4A protease, 5% DMSO, 60 min at room temperature
T1 construct: made in house
Experimental: General procedure: Measurement of the inhibitory effect of compounds on HCV protease activity was performed with the SensoLyte™ 620 HCV Protease Assay kit from AnaSpec, Inc. (San Jose, Calif.) under conditions described by the supplier using 1.2 nM HCV NS3-NS4A protease, which was obtained according to Taremi et al. (Protein Science, 1998, 7, 2143-2149). The compounds were tested at a variety of concentrations in assay buffer containing a final DMSO concentration of 5%. Reactions were allowed to proceed for 60 min at room temperature and fluorescence measurements were recorded with a Tecan Infinity Spectrofluorimeter. The IC50 values were determined from the percent inhibition versus concentration data using a sigmoidal non-linear regression analysis based on four parameters with Tecan Magellan software.

T1 sequence (P27958 1027-1208): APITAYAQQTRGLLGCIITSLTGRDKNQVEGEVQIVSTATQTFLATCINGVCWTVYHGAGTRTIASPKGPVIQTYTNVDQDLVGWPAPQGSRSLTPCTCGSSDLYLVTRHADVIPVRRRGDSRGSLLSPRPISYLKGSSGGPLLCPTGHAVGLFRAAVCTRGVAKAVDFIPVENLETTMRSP

Row | SMILES | EC50 [1] [µM] | CC50 [2] [mM] | IC50 (HCV NS3-NS4A protease) [nM]
1 | CCCn1ccc(-c2cc(OCC[C@@H]3NC(=O)N(C)CCCC/C=C\[C@@H]4C[C@@]4(C(=O)NS(=O)(=O)C4(C)CC4)NC3=O)c3ccc(OC)c(C)c3n2)n1 | 0.1 to 10 | > 1 | < 100
2 | COc1ccc2c(OCC[C@@H]3NC(=O)N(C)CCCC/C=C\[C@@H]4C[C@@]4(C(=O)NS(=O)(=O)N4CCC(F)(F)C4)NC3=O)cc(-c3nc(C(C)C)cs3)nc2c1Cl | 0.1 to 10 | > 1 | 100 to 10000
3 | COc1ccc2c(OCCC3NC(=O)N(C)CCCC/C=C\C4CC4(C(=O)NS(=O)(=O)C4(C#N)CC4)NC3=O)cc(-c3nc(C(C)C)cs3)nc2c1Cl (stereo not drawn) | 0.1 to 10 | > 1 | < 100
4 | COc1ccc2c(OCC[C@@H]3NC(=O)N(C)CCCC/C=C\[C@@H]4C[C@@]4(C(=O)NS(=O)(=O)C4CC4)NC3=O)cc(-c3nc(C(C)C)cs3)nc2c1Cl | < 0.1 | > 1 | < 100
5 | CCC1(S(=O)(=O)NC(=O)[C@@]23C[C@H]2/C=C\CCCCN(C)C(=O)N[C@@H](CCOc2cc(-c4nc(C(C)C)cs4)nc4c(Cl)c(OC)ccc24)C(=O)N3)CC1 | < 0.1 | > 1 | < 100
6 | COc1ccc2c(OCC[C@@H]3NC(=O)N(C)CCCC/C=C\[C@@H]4C[C@@]4(C(=O)NS(=O)(=O)C4(C)CC4)NC3=O)cc(-c3ccn(CCC(C)C)n3)nc2c1C | 0.1 to 10 | > 1 | < 100
7 | COc1ccc2c(OCCC3NC(=O)N(C)CCCC/C=C\C4CC4(C(=O)NS(=O)(=O)C4(F)CC4)NC3=O)cc(-c3nc(C(C)C)cs3)nc2c1Cl (stereo not drawn) | 0.1 to 10 | > 1 | < 100
8 | COc1ccc2c(OCC[C@@H]3NC(=O)N(C)CCCC/C=C\[C@@H]4C[C@@]4(C(=O)NS(=O)(=O)C4(C)CC4)NC3=O)cc(-c3cc(C(F)(F)F)nn3C)nc2c1C | 0.1 to 10 | > 1 | < 100
9 | C#C[C@@H]1CCCN1S(=O)(=O)NC(=O)[C@@]12C[C@H]1/C=C\CCCCN(C)C(=O)N[C@@H](CCOc1cc(-c3nc(C(C)C)cs3)nc3c(Cl)c(OC)ccc13)C(=O)N2 | 0.1 to 10 | > 1 | < 100
10 | COc1ccc2c(OCCC3NC(=O)N(C)CCCC/C=C\C4CC4(C(=O)NS(=O)(=O)N4CCOCC4)NC3=O)cc(-c3nc(C(C)C)cs3)nc2c1Cl (stereo not drawn) | 0.1 to 10 | > 1 | 100 to 10000
11 | COc1ccc2c(OCCC3NC(=O)N(C)CCCC/C=C\C4CC4(C(=O)NS(=O)(=O)N(C)C)NC3=O)cc(-c3nc(C(C)C)cs3)nc2c1Cl (stereo not drawn) | < 0.1 | > 1 | < 100
12 | COc1ccc2c(OCC[C@@H]3NC(=O)N(C)CCCC/C=C\[C@@H]4C[C@@]4(C(=O)NS(=O)(=O)C4CC4)NC3=O)cc(-c3ccccc3)nc2c1 | 0.1 to 10 | > 1 | < 100
13 | COc1ccc2c(OCC[C@@H]3NC(=O)N(C)CCCC/C=C\[C@@H]4C[C@@]4(C(=O)NS(=O)(=O)C4(I)CC4)NC3=O)cc(-c3nc(C(C)C)cs3)nc2c1C | 0.1 to 10 | > 1 | < 100
14 | COc1ccc2c(OCC[C@@H]3NC(=O)N(C)CCCC/C=C\[C@@H]4C[C@@]4(C(=O)O)NC3=O)cc(-c3ccccc3)nc2c1 | 10 to 1000 | > 1 | 100 to 10000
15 | COc1ccc2c(OCC[C@@H]3NC(=O)N(C)CCCC/C=C\[C@@H]4C[C@@]4(C(=O)NS(=O)(=O)C4CC4)NC3=O)cc(-c3nc(C(C)C)cs3)nc2c1F | 10 to 1000 | > 1 | < 100
16 | COc1ccc2c(OCC[C@@H]3NC(=O)N(C)CCCC/C=C\[C@@H]4C[C@@]4(C(=O)NS(=O)(=O)C4(CC5CC5)CC4)NC3=O)cc(-c3nc(C(C)C)cs3)nc2c1Cl | 0.1 to 10 | > 1 | < 100
17 | COc1ccc2c(OCC[C@@H]3NC(=O)N(C)CCCC/C=C\[C@@H]4C[C@@]4(C(=O)S(=O)(=O)C4(C)CC4)NC3=O)cc(-c3ccn(Cc4ccccc4)n3)nc2c1C | 0.1 to 10 | > 1 | < 100

Row | SMILES | EC50 [1] [µM] | CC50 [2] [mM] | IC50 (HCV NS3-NS4A protease) [nM]
18 | COc1ccc2c(OCC[C@@H]3NC(=O)N(C)CCCC/C=C\[C@@H]4C[C@@]4(C(=O)NS(=O)(=O)C4(C)CC4)NC3=O)cc(-n3ccc(C(C)C)n3)nc2c1C | < 0.1 | > 1 | < 100
19 | CCn1ccc(-c2cc(OCC[C@@H]3NC(=O)N(C)CCCC/C=C\[C@@H]4C[C@@]4(C(=O)OS(=O)(=O)C4(C)CC4)NC3=O)c3ccc(OC)c(C)c3n2)n1 | 0.1 to 10 | > 1 | < 100
20 | CC(=O)OCC[C@@H]1NC(=O)N(C)CCCC/C=C\[C@@H]2C[C@@]2(C(=O)NS(=O)(=O)C2CC2)NC1=O | > 1000 | > 1 | 100 to 10000
21 | COc1ccc2c(OCC[C@@H]3NC(=O)N(C)CCCC/C=C\[C@@H]4C[C@@]4(C(=O)NS(=O)(=O)C4(C)CC4)NC3=O)cc(-c3ccn(CCN4CCOCC4)n3)nc2c1C | 0.1 to 10 | > 1 | < 100
22 | COc1ccc2c(OCC[C@@H]3NC(=O)N(C)CCCC/C=C\[C@@H]4C[C@@]4(C(=O)NS(=O)(=O)C4(C)CC4)NC3=O)cc(-c3nc(C(C)C)cs3)nc2c1 | < 0.1 | 0.01 to 1 | < 100
23 | COc1ccc2c(OCC[C@@H]3NC(=O)N(C)CCCC/C=C\[C@@H]4C[C@@]4(C(=O)OS(=O)(=O)C4(C)CC4)NC3=O)cc(-n3ccc(C(F)(F)F)n3)nc2c1C | < 0.1 | > 1 | < 100
24 | COc1ccc2c(OCC[C@@H]3NC(=O)N(C)CCCC/C=C\[C@@H]4C[C@@]4(C(=O)NS(=O)(=O)C4(C)CC4)NC3=O)cc(-c3nc(C(C)C)cs3)nc2c1C | < 0.1 | > 1 | < 100
25 | COc1ccc2c(C(=O)OCC[C@@H]3NC(=O)N(C)CCCC/C=C\[C@@H]4C[C@@]4(C(=O)NS(=O)(=O)C4CC4)NC3=O)cc(-c3ccccc3)nc2c1 | > 1000 | > 1 | 100 to 10000
26 | COc1ccc2c(OCC[C@@H]3NC(=O)N(C)CCCC/C=C\[C@@H]4C[C@@]4(C(=O)NS(=O)(=O)C4(C)CC4)NC3=O)cc(-n3ccc(C(C)C)n3)nc2c1Cl | < 0.1 | > 1 | < 100
27 | COc1ccc2c(OCC[C@@H]3NC(=O)N(C)CCCC/C=C\[C@@H]4C[C@@]4(C(=O)NS(=O)(=O)C4(C)CC4)NC3=O)cc(-c3nc(C(C)C)cs3)nc2c1Cl | < 0.1 | > 1 | < 100
28 | COc1ccc2c(OCC[C@@H]3NC(=O)N(C)CCCC/C=C\[C@@H]4C[C@@]4(C(=O)NS(=O)(=O)N4CCC[C@H]4C#N)NC3=O)cc(-c3nc(C(C)C)cs3)nc2c1Cl | 0.1 to 10 | > 1 | 100 to 10000
29 | COc1ccc2c(OCC[C@@H]3NC(=O)N(C)CCCC/C=C\[C@@H]4C[C@@]4(C(=O)NS(=O)(=O)C4(C)CC4)NC3=O)cc(-c3csc(NC(C)C)n3)nc2c1 | 0.1 to 10 | > 1 | < 100
30 | COc1ccc2c(OCC[C@@H]3NC(=O)N(C)CCCC/C=C\[C@@H]4C[C@@]4(C(=O)NS(=O)(=O)C4(C)CC4)NC3=O)cc(-c3ccn(CC(C)C)n3)nc2c1C | 0.1 to 10 | > 1 | < 100
31 | COc1ccc2c(OCCC3NC(=O)N(C)CCCC/C=C\C4CC4(C(=O)NS(=O)(=O)C4(C)CC4)NC3=O)cc(-c3nc(C(C)C)cs3)nc2c1F (stereo not drawn) | 0.1 to 10 | > 1 | < 100
32 | C#CC1(S(=O)(=O)NC(=O)C23CC2/C=C\CCCCN(C)C(=O)NC(CCOc2cc(-c4nc(C(C)C)cs4)nc4c(Cl)c(OC)ccc24)C(=O)N3)CC1 (stereo not drawn) | < 0.1 | > 1 | < 100
33 | COc1ccc2c(OCCC3NC(=O)N(C)CCCC/C=C\C4CC4(C(=O)NS(=O)(=O)C4(C)CC4)NC3=O)cc(-c3nc(C(C)C)cs3)nc2c1Br (stereo not drawn) | < 0.1 | > 1 | < 100
34 | COc1ccc2c(OCC[C@@H]3NC(=O)N(C)CCCC/C=C\[C@@H]4C[C@@]4(C(=O)NS(=O)(=O)C4(C)CC4)NC3=O)cc(-n3ccc(C(F)(F)F)n3)nc2c1Cl | < 0.1 | > 1 | < 100
